What all share (assay): Kinobeads competition binding, HeLa Placenta lysate mix
Holding throughout (design): endogenous in cells
What all share (settings): 10 μM free compound

In one assay the target is T1, NEK9 (Homo sapiens, UniProt Q8TD19).
T1 sequence (Q8TD19 1-979): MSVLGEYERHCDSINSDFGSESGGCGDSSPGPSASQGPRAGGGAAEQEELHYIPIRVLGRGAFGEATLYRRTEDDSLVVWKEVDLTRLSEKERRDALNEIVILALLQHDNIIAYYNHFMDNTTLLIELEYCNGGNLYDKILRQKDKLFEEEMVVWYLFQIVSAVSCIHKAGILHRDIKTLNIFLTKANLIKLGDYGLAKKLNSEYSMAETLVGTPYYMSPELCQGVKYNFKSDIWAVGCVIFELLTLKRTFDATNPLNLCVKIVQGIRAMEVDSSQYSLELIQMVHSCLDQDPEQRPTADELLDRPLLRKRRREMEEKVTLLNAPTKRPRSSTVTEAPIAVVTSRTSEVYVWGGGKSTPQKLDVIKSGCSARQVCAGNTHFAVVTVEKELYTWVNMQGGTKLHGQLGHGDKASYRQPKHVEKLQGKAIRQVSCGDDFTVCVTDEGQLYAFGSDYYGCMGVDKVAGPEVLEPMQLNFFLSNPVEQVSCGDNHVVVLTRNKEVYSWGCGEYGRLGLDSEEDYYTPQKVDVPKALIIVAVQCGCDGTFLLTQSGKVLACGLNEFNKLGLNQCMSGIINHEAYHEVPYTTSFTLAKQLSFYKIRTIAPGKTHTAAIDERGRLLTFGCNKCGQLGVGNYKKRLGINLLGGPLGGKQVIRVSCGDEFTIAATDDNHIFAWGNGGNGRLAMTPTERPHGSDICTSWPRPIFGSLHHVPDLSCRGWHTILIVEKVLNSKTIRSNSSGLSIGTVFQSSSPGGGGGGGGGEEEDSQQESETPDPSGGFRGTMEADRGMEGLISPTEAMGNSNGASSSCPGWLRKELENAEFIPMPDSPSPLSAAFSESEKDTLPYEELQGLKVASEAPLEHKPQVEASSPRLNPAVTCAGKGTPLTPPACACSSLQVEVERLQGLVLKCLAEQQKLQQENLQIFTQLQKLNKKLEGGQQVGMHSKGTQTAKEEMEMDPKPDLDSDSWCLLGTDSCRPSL
An outline of the steps:
(§1)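 Free compound (10 μM) was allowed to bind lysate proteins before affinity beads bearing immobilized compound were added. Bound material, together with that from a DMSO control, was digested and measured by iTRAQ LC-MS/MS.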

The target in another assay is IRAK3 (Homo sapiens, UniProt Q9Y616). In short, it runs like this: as §1
For another assay, the target named is FER (Homo sapiens, UniProt P16591). In short, it runs like this: as §1
The next assay deals with CaMKK2 (Homo sapiens, UniProt Q96RR4). In short, it runs like this: as §1
For the next assay, the target named is LYN (Homo sapiens, UniProt P07948). An outline of the steps: as §1
The target of another assay is PKN1 (Homo sapiens, UniProt Q16512). An outline of the steps: as §1
The next assay addresses JAK1 (Homo sapiens, UniProt P23458). An outline of the steps:
as §1

For a further assay, the target named is CDC2 (Homo sapiens, UniProt P06493). In short, it runs like this:
as §1

FER, sequence (P16591 whole entry): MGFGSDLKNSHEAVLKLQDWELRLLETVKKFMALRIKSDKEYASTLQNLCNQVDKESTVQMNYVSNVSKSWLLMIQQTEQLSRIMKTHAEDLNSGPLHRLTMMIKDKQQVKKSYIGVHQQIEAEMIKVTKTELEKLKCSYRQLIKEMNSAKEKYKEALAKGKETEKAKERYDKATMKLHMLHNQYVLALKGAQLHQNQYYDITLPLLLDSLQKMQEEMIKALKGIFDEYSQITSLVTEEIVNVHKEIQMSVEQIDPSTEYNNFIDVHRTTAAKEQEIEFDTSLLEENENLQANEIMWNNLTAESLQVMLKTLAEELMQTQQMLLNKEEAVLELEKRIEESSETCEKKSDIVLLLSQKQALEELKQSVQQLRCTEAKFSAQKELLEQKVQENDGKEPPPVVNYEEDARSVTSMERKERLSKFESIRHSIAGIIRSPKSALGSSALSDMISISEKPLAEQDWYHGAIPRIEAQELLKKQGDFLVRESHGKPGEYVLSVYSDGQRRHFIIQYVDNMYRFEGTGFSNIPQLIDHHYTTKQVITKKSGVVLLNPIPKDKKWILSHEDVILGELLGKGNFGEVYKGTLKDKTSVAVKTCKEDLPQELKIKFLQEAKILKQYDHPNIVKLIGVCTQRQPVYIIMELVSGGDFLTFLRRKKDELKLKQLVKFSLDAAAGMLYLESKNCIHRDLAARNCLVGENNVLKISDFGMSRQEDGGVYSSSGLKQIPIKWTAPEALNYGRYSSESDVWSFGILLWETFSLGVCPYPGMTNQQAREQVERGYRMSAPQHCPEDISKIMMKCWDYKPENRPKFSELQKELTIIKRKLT
IRAK3, sequence (Q9Y616 whole entry): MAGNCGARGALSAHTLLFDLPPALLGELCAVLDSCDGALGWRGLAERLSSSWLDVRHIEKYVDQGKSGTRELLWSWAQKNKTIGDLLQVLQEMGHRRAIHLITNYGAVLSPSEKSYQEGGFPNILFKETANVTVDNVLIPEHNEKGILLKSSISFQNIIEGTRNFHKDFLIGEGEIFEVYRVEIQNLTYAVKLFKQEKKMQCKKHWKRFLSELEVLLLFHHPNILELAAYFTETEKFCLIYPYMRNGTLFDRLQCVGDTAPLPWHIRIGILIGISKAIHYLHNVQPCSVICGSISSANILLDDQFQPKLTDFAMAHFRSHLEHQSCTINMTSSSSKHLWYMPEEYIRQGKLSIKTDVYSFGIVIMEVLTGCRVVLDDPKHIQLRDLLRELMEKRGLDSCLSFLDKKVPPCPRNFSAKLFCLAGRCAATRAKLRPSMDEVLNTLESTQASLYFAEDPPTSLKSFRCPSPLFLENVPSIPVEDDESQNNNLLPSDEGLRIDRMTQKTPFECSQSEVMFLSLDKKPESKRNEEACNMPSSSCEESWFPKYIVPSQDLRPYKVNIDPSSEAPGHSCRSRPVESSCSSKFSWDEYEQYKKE
JAK1, sequence (P23458 whole entry): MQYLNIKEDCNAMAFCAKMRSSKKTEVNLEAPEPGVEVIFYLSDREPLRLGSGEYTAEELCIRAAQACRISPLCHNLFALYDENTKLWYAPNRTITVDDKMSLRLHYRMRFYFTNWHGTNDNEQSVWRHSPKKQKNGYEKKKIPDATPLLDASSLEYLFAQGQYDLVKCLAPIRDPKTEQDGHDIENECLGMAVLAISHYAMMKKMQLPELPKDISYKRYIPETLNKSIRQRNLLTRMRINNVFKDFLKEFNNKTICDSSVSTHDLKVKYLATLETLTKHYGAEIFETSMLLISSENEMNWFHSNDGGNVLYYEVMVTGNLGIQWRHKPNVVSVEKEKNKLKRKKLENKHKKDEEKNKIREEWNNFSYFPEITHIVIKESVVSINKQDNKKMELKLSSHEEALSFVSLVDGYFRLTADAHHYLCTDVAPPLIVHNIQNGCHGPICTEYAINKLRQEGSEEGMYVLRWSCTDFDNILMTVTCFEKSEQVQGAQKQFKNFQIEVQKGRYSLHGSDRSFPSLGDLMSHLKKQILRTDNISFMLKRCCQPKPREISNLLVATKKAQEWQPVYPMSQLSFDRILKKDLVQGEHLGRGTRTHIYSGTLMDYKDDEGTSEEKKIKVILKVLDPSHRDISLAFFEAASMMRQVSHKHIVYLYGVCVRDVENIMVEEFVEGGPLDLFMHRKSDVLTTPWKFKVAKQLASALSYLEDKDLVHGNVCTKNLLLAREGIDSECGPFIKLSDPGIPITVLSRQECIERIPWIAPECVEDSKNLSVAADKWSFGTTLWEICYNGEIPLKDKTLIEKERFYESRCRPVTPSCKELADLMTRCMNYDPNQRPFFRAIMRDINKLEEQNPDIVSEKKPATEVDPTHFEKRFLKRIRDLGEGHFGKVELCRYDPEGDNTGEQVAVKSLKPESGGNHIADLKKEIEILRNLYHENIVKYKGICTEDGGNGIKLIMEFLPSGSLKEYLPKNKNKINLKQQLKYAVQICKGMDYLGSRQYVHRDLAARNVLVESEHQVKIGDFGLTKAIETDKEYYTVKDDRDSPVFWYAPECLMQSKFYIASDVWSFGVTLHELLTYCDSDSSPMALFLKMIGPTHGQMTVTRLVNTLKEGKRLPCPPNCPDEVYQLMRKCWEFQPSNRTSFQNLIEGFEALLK
PKN1, sequence (Q16512 whole entry): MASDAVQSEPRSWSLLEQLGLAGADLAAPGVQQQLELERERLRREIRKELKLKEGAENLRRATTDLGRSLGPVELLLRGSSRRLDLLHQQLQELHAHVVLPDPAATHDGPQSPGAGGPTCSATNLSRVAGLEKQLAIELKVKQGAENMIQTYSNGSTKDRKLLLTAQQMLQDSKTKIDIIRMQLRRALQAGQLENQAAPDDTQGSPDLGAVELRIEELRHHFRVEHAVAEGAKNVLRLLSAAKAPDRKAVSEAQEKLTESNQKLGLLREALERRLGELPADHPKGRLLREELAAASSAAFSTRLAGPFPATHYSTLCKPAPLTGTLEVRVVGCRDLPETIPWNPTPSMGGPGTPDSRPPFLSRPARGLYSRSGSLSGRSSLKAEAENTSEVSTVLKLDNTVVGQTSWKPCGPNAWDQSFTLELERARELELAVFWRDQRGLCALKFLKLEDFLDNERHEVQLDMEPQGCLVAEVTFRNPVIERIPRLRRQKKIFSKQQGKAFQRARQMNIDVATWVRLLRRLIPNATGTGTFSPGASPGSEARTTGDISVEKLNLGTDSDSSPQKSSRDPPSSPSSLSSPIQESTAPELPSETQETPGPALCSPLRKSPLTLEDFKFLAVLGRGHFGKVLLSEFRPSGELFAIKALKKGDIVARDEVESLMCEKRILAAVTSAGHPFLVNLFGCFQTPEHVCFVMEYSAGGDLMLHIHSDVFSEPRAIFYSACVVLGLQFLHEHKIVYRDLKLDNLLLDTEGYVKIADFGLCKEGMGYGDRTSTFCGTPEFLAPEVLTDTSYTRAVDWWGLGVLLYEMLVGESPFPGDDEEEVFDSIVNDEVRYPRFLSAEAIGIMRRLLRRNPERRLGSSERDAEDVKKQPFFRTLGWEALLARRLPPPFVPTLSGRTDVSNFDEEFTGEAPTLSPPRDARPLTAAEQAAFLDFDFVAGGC
LYN, sequence (P07948 whole entry): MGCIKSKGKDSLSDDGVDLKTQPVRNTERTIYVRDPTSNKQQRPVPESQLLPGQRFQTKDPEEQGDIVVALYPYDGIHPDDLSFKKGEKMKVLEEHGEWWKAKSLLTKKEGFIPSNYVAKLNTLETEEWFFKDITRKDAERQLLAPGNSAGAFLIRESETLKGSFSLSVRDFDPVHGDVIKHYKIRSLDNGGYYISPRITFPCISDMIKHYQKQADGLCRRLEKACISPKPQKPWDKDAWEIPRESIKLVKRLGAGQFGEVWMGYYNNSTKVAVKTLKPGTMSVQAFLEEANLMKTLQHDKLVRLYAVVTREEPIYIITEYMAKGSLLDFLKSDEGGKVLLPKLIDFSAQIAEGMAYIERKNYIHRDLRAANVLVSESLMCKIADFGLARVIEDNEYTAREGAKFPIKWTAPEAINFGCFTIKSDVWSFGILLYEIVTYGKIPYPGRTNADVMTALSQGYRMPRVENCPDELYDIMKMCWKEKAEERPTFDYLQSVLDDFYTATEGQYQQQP
CDC2, sequence (P06493 whole entry): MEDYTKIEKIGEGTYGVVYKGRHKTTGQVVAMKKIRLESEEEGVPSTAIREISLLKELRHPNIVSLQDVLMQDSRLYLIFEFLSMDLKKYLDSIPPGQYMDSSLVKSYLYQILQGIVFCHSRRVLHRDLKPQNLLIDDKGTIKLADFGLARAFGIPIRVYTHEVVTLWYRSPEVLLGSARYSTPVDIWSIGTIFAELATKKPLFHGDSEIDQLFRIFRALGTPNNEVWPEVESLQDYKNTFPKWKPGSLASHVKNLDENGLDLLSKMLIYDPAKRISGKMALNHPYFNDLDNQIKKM
CaMKK2, sequence (Q96RR4 whole entry): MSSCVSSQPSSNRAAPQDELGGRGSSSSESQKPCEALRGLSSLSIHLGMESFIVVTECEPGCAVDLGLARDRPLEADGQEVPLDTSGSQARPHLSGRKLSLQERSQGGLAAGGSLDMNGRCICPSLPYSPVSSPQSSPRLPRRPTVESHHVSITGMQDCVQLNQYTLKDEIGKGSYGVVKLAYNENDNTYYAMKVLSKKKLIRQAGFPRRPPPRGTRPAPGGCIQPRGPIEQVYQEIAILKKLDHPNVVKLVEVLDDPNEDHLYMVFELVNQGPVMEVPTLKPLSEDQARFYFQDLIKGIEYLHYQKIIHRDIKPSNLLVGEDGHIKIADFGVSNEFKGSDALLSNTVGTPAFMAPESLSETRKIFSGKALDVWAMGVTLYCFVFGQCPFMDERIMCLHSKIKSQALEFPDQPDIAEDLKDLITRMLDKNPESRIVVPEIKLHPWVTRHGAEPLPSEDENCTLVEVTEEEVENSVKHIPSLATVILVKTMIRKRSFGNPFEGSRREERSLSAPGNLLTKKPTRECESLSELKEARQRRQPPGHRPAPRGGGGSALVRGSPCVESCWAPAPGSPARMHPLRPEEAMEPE

As for `CS(=O)(=O)Nc1ccccc1Nc1nc(Nc2cccc(OCCN)c2)ncc1Cl` [CZC31326, N-(2-(2-(3-(2-aminoethoxy)phenylamino)-5-chloropyrimidin-4-ylamino)phenyl)methanesulfonamide], the inhibition at 10 µM on NEK9 came to 89%; at IRAK3, 92%; at FER, 95.3%; on CaMKK2, 94.3%; on LYN, 76.1%; at PKN1, 93.7%. On CDC2, this molecule showed an inhibition at 10 µM of 93.4%. On JAK1, this molecule came in with a Competition % of 95%.

The term inhibition denotes the percentage by which the read-out fell short of the control. Low values mean little suppression, high ones strong suppression.

For the origin of these results see patent publication US20120270237A9, “METHODS FOR THE IDENTIFICATION OF KINASE INTERACTING MOLECULES AND FOR THE PURIFICATION OF KINASE PROTEINS” (Cellzone AG, priority 2009, published 2012).
